Experimental data taken from US8415156B2, “Recombinant laminin-521” (Biolamina AB, priority 2010, dated 2013).

What was measured:
HS181 cells = test: Single cell survival / cell adhesion, 1 day after plating (Example 1); format: cell-based, human
Description: Human ES cells were cultured on r-laminin-521-coated laboratory dishes in chemically defined O3 medium (described in Rodin et al., Nature Biotechnol., vol. 28, pp. 611-615 (2010)) at 37° C. in 5% CO2. Cells were routinely passed once every 10-12 days by exposure to Trypsin-EDTA solution (GIBCO Invitrogen) for 5 minutes at 37° C. They were then gently pipetted to break into single-cell suspension and defined trypsin inhibitor (GIBCO Invitrogen) was added. The cell suspension was centrifuged […], the supernatant discarded, the cell pellet resuspended in prewarmed O3 medium, and cells were then passed through a 40 μm sieve. After that cells were plated on new r-laminin-521-coated dishes at a concentration 30 Kcells/cm^2 (1:25-1:30 split ratio). Cells were fed once a day with fresh medium prewarmed in an incubator for 1 hour, except for the first day after a passage, when only a few drops of fresh medium were added. Control cells of the same line were cultured on Matrigel (BD Biosciences) in O3 medium as described in Rodin et al., Nature Biotechnol., vol. 28, pp. 611-615 (2010). Control cells were passaged in pieces.
Ninety-six-well tissue cell culture plates were coated overnight at 4° C. with sterile solutions of the ECM proteins mouse LN-111 (Invitrogen), human recombinant LN-511, and human recombinant LN-521, all at a concentration of 30 μg/ml (5 μg/cm^2). For control cells, BD Matrigel™ hESC qualified (BD Biosciences) was used according to the manufacturer's instructions.
The assay was performed as described (Extracellular Matrix Protocols, 2000). Briefly, 96-well plates were coated by extracellular matrix proteins as described above and blocked by O3 medium containing bovine serum albumin. The ES cells were plated at a cell density of 600 cell/mm^2 upon extracellular matrix-coated plates and were left to adhere for either 1 hour or 1 day at the cell incubator. Non-adherent cells were washed away, and adherent cells were fixed for 20 min by 5% glutaraldehyde, stained by 0.1% Crystal Violet.

hES cells [1] = test: Cell survival assay, 24 hours (Example 2); format: cell-based, human
Description: Tissue cell culture plates were coated overnight at 4° C. with sterile solutions of the ECM proteins, such as human recombinant LN-521, all at a concentration of 30 μg/ml (5 μg/cm^2). Control plates were coated with Matrigel according to the STEMCELL Technologies' instructions. Prior to use, dishes were pre-warmed in an incubator for one hour after which prewarmed O3 medium was added without additional washing of the dish. After applying a fresh LN-521 solution to a new dish, the remaining LN-521 solution could be used at least once more. All the adhesion, survival, and inhibition of survival experiments were carried out using fresh coating materials.
Briefly, 96-well plates were coated by extracellular matrix proteins as described above and blocked by O3 medium containing bovine serum albumin. The ES cells were plated at cell density of 50,000 cells/cm^2 onto extracellular matrix-coated plates and left to adhere for 1 hour in a cell incubator. After that the plates were washed 3 times with the medium to remove the non-adherent cells, and then the adherent cells were fixed for 20 minutes by 5% glutaraldehyde, stained by 0.1% Crystal Violet. (Kebo Lab, Spanga, Sweden, www.kebolab.se). After one hour and 3 washes with water, Crystal Violet was extracted with 10% acetic acid and quantified by measuring optical density at 570 nm. All the experiments were performed in quadruplicate.
The survival assay was performed as described for the cell adhesion assay above, except that the cells were left in the cell incubator for 24 hours. For inhibition of survival assay, the cells were kept in a medium with function blocking antibodies at the concentrations recommended by the manufacturer or pathway inhibitors at concentrations indicated in the text for 30 minutes, and then plated on the coated dishes. All the experiments were performed in quadruplicate.
Pluripotent hES cells express α1, α5, β1, β2 and γ1 laminin chains. To compare the adhesion and clonal survival of hES cells plated from single cell suspension to different coating substrata, hES cells growing as monolayers on LN-511 or as clusters on a feeder layer were trypsinized into single cell suspension in O3 medium and plated on cell culture dishes coated with Matrigel, LN-111, LN-511, LN-521 or a mixture of LN-511 and LN-521, in the absence or presence of a ROCK inhibitor (Y-27632) and analyzed after 24 hours.

hES cells [2] = test: Clonal survival of individualized hES cells (Example 4); format: cell-based, human; conditions: mTeSR1; 250 cells per cm^2; 5 days; alkaline phosphatase staining
Description: hES cells were plated in mTeSR1 medium on different coatings at a density of 250 cells per cm^2 and monitored after 5 days in culture using an alkaline phosphatase staining kit.
Next, combinations of laminin-521 and E-Cadherin were tested to determine whether the combinations could sustain clonal survival of the cells. Fixed amounts of laminin-521 were used for the cell culture dish coating in combination with titrated E-Cadherin.
Additional tests were performed to test the effects of various modifications to the mTeSR1 medium. A mixture of E-Cadherin to laminin-521 in a ratio of about 1:10 w/w was used to coat the plates. […] Time-lapse photography of the cells confirmed that laminin-521/E-Cadherin coatings facilitated cell survival through proliferation of the single cells, not through the aggregation of different cells.

[3] = system: human embryonic stem cell; test: Survival after dissociation into single cell suspension (description); format: cell-based; conditions: O3 medium; 30 Kcells/cm^2; precoated dishes
Text: In other aspects, the present disclosure provides a new material, isolated laminin-521, which permits human embryonic stem cell survival after dissociation into single cell suspension. The stem cells were dissociated into single cell suspension by Trypsin-EDTA treatment, pelleted by centrifugation, resuspended into O3 medium, filtered through a 40 μm sieve, and plated at a density of 30 Kcells/cm^2 on cell culture dishes precoated by either isolated laminin-521, laminin-511, or Matrigel. After one day in culture, the cells plated on Matrigel died, as is known in the art.

OCT4 = test: FACS analysis for Oct4; format: cell-based, human; conditions: after several single cell suspension passages, O3 medium without additives
Description: OCT4 expression was analyzed as described in Ludwig, T. E. et al. Derivation of human embryonic stem cells in defined conditions. Nat. Biotechnol. 24, 185-187 (2006). Cells were run on FACSCalibur Flow Cytometer (Becton Dickinson). Data were analyzed with CellQuest software (Becton Dickinson).

LN-521: protein formed by joining α5, β2 and γ1 chains together; human recombinant, produced in HEK293 cells
adhesion at 1 day without additives compared with dishes including the ROCK inhibitor (HS181 cells; 1 day after plating): similar | adhesion at 1 day relative to Matrigel without additives (HS181 cells; 1 day after plating, without additives): 20 times | adhesion at 1 day without additives compared with dishes including the ROCK inhibitor (HS181 cells; 1 day after plating, listed as LN-532): no ROCK inhibitor is necessary | single cell survival / cells remaining attached 24 hours after plating (HS181 cells; O3 medium without any additives, completely dissociated HS181 cells): survived | survival of Y-27632 treated human ES cells on LN-521 compared with Matrigel (hES cells [1]; 10 μM of Y-27632, 40,000 cells per 1 cm^2): survived better | survival on LN-521 compared with LN-511 (hES cells [1]; 24 hours, absence of ROCK inhibitor): significantly higher | cell shape of cells growing on LN-521 24 hours after plating (hES cells [1]; LN-521 row: absence of ROCK inhibitor, Y-27632 row: presence of ROCK inhibitor): round | survival relative to Matrigel, exogenous bFGF removed (hES cells [1]; O3 medium without exogenous bFGF): 20 times | survival of hES cells plated from single cell suspension after 24 hours (hES cells [1]; O3 medium, absence of ROCK inhibitor): did so as single cells | survival 24 hours after plating in medium lacking all growth factors of the TeSR1 formulation (hES cells [1]; no bFGF, LiCl, GABA, pipecolic acid and TGFβ): survived | clonal survival of individualized hES cells (hES cells [2]): Neither laminin-521 nor E-Cadherin alone permitted efficient clonal survival | survival of hES cells plated from single cell suspension after one day in culture [3]: survived and started to proliferate | percentage of Oct4 positive (pluripotent) cells compared with Matrigel (OCT4): much higher percentage
